Measurements taken from patent US7456154B2 (priority 2001, dated 2008).

Legend:
Cynomolgus monkeys = test: 7-day toxicology study of hEN101 in Cynomolgus monkeys; assay type: in vivo, Cynomolgus monkey
Procedure: This experiment was conducted with six (3 males and 3 females) purpose-bred 15 month-old (young adult) Cynomolgus monkeys, divided in three groups (1, 2 and 3) of one male and one female each. Groups 1 and 2 received hEN101 daily by o.g. for a period of 7 days, at a concentration of 0.15 and 0.50 μg/g/day, respectively. Group 3 received daily i.v. injections of hEN101 for a period of 7 days at a dosage of 0.50 μg/g/day.
Over a 12 hour period, plasma samples were obtained during the second treatment day to investigate the toxicokinetic profile at each dosage. The toxicology study consisted of checking the animals during the 7 days of treatment for gross signs of toxicity by the following parameters: mortality, body weight, food consumption, electrocardiography, blood pressure, hematology (peripheral blood), and blood chemistry. At 7 days the monkeys were sacrificed and examined post-mortem for macroscopic pathology and organ weight. Fixed sections of brain (cerebellum, cerebrum, midbrain, medulla), caecum, colon, duodenum, heart (auricular and ventriclar regions), ileum, jejunum, kidneys (cortex, medulla, papilla regions), liver (two main lobes), lungs (two major lobes, including bronchi), lymph nodes (mandibular and mesenteric), esophagus, rectum, sciatic nerve, skeletal muscle (thigh), spinal cord (transverse and longitudinal sections at cervical level), spleen and stomach (body and antrum) were stained with hematoxylin/eosin to reveal necrosis or cell death.

AChE-R = test: Immunoblot densitometry of serum AChE-R in EAMG rats; assay type: in vivo, rat; conditions: 24 h after single i.v. injection of 250 μg/Kg
Procedure: Serum analyses: Blood samples drawn from EAMG rats and MG patients were subjected to non-denaturing gel electrophoresis as described [Kaufer et al. (1998) id ibid], as well as to catalytic activity measurements of AChE [Shapira et al. (2000) id ibid]. Iso-OMPA (tetraisopropylpyrophosphoramide, […]), was used to block butyrylcholinesterase activity in the serum samples. For activity staining on polyacrylamide gels [Kaufer et al. (1998) id ibid] we used 5-10−6 M iso-OMPA.
To evaluate the physiological outcome of this suppression, compound muscle action potentials (CMAPs) from the gastrocnemius muscle were recorded. […] The baseline decline, the percent difference in the heights of the fifth and the first evoked potentials, ranged from 10% to 36% (mean±SEM=13.0±2.5%, FIG. 9B, inset) as compared to 4.0±0.9% among healthy rats. The standard therapy for MG patients is administration of anti-cholinesterases, which elevate ACh levels to a threshold that enables receptor activation. Accordingly, neostigmine bromide (Prostigmine™, 75 μg/kg) was administered via i.p. This rapidly and effectively corrected the CMAP decline in EAMG rats, from 87.6% of the first evoked potential in untreated animals to […] of this level (i.e. 107.4%) of the first evoked potential). […]

Substance | Post-mortem finding at injection site (Cynomolgus monkeys; i.v. 0.50 μg/g/day, 7 days) | Animals with slight healing erosions in the body of the stomach post-mortem (Cynomolgus monkeys; in each group, possibly associated with treatment) | Clinical investigations for toxicity (Cynomolgus monkeys; o.g. 0.15 or 0.50 μg/g/day, i.v. 0.50 μg/g/day, 7 days) | Serum AChE-R level (AChE-R)
5′-CTGCCACGTTCTCCTGCACC-3′ [hEN101] | some irritation of the perivascular tissue at the site of intravenous injection | 1 of 2 | no toxicological effects | –
5′-CTGCGATATTTTCTTGTACC-3′ (chemistry not given here) [rEN101] | – | – | – | reducing its serum level
